Structures can show the parent of a compound that is named as a salt.
How the values were obtained:
[1] = target: T1, δ opioid receptor (Mus musculus, UniProt P32300); assay: antagonism of DADLE on MVD preparations (Example 7); assay type: cell-based; conditions: for IC50 ratio (DADLE): MVD, 100 nM of each compound, NTI = 20 nM, 15 min
T1 construct: Both vasa deferentia were dissected out of mice; from tissue; host or cells: mouse vas deferens (isolated, electrically stimulated)
Procedure: 2. Mouse Vas Deferens (MVD). […] The organ bath was maintained at 37° C.
Concentration-response curves were obtained in the absence (control) and the presence of the antagonist are expressed as IC50 values. […] Therefore, a high IC50 ratio represents a correspondingly high degree of antagonism at a particular receptor. […] Therefore, a low Ke represents a correspondingly high degree of binding at a particular receptor.

[2] = target: mu opioid receptors; design: key to Ke, M: No agonist antagonism observed; conditions: GPI, cited from earlier work; for Kb: read-out: Ke, M (morphine), agonist morphine, antagonist 100 or 200 nM, 15 min
[3] = target: kappa opioid receptors; design: key to Ke, EK: No agonist antagonism observed; conditions: GPI, cited from earlier work; for Kb: agonist ethylketazocine, antagonist 100 or 200 nM, 15 min, read-out: Ke, EK
[4] = target: T2, delta opioid receptors (Mus musculus, UniProt P32300); assay: antagonism of DADLE in the mouse vas deferens (MVD) preparation; conditions: compared with 1 or its congeners
Procedure: Mouse Vas Deferens (MVD). […] Both vasa deferentia were dissected out of mice and mounted singly through two platinum ring electrodes in a 10 ml organ bath. The bath contained Krebs bicarbonate solution that was continuously bubbled with 95% O2 and 5% CO2. The organ bath was maintained at 37° C. The tissue was attached to an isometric transducer and stimulated transmurally with rectangular pulses (0.1 Mz, 1 ms duration, supramaximal voltage). Drugs were added cumulatively to the bath in 10- to 50-μL amounts and washed out after noting their maximum effect.
The compounds were tested in vitro on the mouse vas deferens (MVD) and guinea pig ileum (GPI) preparations. […] The IC50 value was divided by the control IC50 value in the same tissue, and this IC50 ratio (DR) was employed to calculate the Ke value using the equation Ke=[antagonist]/(DR-1).

[5] = target: T2, delta opioid receptors; design: key: No agonist antagonism observed; conditions: MVD; compound 7 tested at 5 nM or less; cited from earlier work
[6] = tested on: mouse vas deferens (MVD) and guinea pig ileum (GPI) preparations; conditions: cited from earlier work
[7] = target: μ opioid receptor (Cavia porcellus, UniProt A0ACM8Q262); assay: antagonism of morphine in the GPI (Example 7); assay type: cell-based, guinea pig; conditions: morphine as agonist, read-out: Ke, μ (Table VII)
Procedure: 1. Guinea Pig Ileal Longitudinal Muscle (GPI). Ilea from guinea pigs were taken approximately 10 cm from the ileocaecal junction, and a strip of longitudinal muscle with the myenteric plexus attached was prepared by method of Rang et al., Brit. J. Pharmacol., 22, 356 (1964), the disclosure of which is incorporated by reference herein. A 1 cm portion of this strip was then mounted between two platinum electrodes placed in a 10 ml organ bath and connected to an isometric transducer. Contractions were recorded on a polygraph. […] The organ bath was maintained at 36°-37° C. The longitudinal muscle strip was allowed to equilibrate with continuous stimulation for a minimum of 90 min.

[8] = tested on: guinea pig ileum (GPI); conditions: standard result; cited from earlier work
[9] = compound 7 tested at 5 nM or less

T2 sequence (P32300 whole entry): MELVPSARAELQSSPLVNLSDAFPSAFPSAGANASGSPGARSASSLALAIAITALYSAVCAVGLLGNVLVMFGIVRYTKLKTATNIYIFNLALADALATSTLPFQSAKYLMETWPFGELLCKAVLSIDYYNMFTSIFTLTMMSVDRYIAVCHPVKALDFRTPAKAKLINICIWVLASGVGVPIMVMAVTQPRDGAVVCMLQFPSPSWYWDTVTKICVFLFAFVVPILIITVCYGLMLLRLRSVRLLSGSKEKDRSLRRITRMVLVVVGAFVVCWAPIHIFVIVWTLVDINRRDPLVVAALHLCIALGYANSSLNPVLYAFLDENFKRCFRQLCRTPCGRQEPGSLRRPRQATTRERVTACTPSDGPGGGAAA
T1 sequence (P32300 whole entry): as above
μ opioid receptor, sequence (A0ACM8Q262 1-400): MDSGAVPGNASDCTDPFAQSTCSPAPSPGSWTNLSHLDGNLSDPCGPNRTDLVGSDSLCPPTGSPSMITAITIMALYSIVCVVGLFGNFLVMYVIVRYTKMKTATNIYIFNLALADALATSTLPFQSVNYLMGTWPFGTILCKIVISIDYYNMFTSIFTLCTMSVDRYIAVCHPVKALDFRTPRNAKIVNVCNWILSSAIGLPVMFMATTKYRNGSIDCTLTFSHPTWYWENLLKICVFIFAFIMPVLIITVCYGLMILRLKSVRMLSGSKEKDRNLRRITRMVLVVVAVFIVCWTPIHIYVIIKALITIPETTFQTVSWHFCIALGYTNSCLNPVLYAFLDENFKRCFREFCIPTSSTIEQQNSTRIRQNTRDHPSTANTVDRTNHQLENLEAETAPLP

Row | SMILES | Kb [1] [nM] | IC50 ratio (DADLE) [1] | Kb [2] [nM] | Kb [3] [nM] | also measured
1 | O=C1/C(=C/c2cccc([N+](=O)[O-])c2)C[C@@]2(O)[C@H]3Cc4ccc(O)c5c4[C@@]2(CCN3CC2CC2)[C@H]1O5 [IIb] | 20 | 5.97 |  |  | 
2 | Cc1ccc2[nH]c3c(c2c1)C[C@@]1(O)[C@H]2Cc4ccc(O)c5c4[C@@]1(CCN2CC1CC1)[C@H]3O5 [Compound 5] |  |  | > 160 | > 250 | 
3 | Oc1ccc2[nH]c3c(c2c1)C[C@@]1(O)[C@H]2Cc4ccc(O)c5c4[C@@]1(CCN2CC1CC1)[C@H]3O5 [Compound 9] |  |  | 27.2 | 68.5 | 
4 | Oc1ccc2c3c1O[C@H]1c4oc5ccccc5c4C[C@@]4(O)[C@@H](C2)N(CC2CC2)CC[C@]314 [Compound 8, (17-cyclopropylmethyl)-6,7-dehydro-3,14β-dihydroxy-4,5α-epoxy-6,7-2',3'-benzo[b]furanomorphinan] |  |  | 30.8 | 50.8 | delta antagonist potency / selectivity in words [4]: less potent and less selective than 1 as a delta antagonist, nevertheless retains substantial delta antagonist activity
5 | Cc1cccc2c3c([nH]c12)[C@@H]1Oc2c(O)ccc4c2[C@@]12CCN(CC1CC1)[C@H](C4)[C@]2(O)C3 [Compound 13] |  |  | 19.1 | > 330 | 
6 | O=C1/C(=C/c2ccc([N+](=O)[O-])cc2)C[C@@]2(O)[C@H]3Cc4ccc(O)c5c4[C@@]2(CCN3CC2CC2)[C@H]1O5 [IIa, E-7-(4-Nitrobenzylideno)naltrexone hydrochloride] | 111 | 1.90 |  |  | 
7 | COc1cccc2c3c([nH]c12)[C@@H]1Oc2c(O)ccc4c2[C@@]12CCN(CC1CC1)[C@H](C4)[C@]2(O)C3 [Compound 14] |  |  | 35 |  | 
8 | COc1ccc2[nH]c3c(c2c1)C[C@@]1(O)[C@H]2Cc4ccc(O)c5c4[C@@]1(CCN2CC1CC1)[C@H]3O5 [Compound 4] |  |  | 63 | 12.6 | 
9 | Oc1ccc2c3c1O[C@H]1c4nc5ccccc5nc4C[C@@]4(O)[C@@H](C2)N(CC2CC2)CC[C@]314 [Compound 16] |  |  | 6.1 | 13.4 | delta antagonist potency / selectivity in words [4]: A similar relationship was observed
10 | O=C1/C(=C/c2ccc3ccccc3c2)C[C@@]2(O)[C@H]3Cc4ccc(O)c5c4[C@@]2(CCN3CC2CC2)[C@H]1O5 [IIm] | 9.4 | 11.6 |  |  | 
11 | O=[N+]([O-])c1ccc2[nH]c3c(c2c1)C[C@@]1(O)[C@H]2Cc4ccc(O)c5c4[C@@]1(CCN2CC1CC1)[C@H]3O5 [Compound 6] |  |  | 92 | ≥ 200 | 
12 | COc1ccccc1/C=C1\C[C@@]2(O)[C@H]3Cc4ccc(O)c5c4[C@@]2(CCN3CC2CC2)[C@@H](O5)C1=O [IIe] | 0.84 | 120 |  |  | 
13 | O=C1/C(=C/c2ccc(F)cc2)C[C@@]2(O)[C@H]3Cc4ccc(O)c5c4[C@@]2(CCN3CC2CC2)[C@H]1O5 [IIg] | 77 | 2.29 |  |  | 
14 | O=C1/C(=C/c2ccccc2F)C[C@@]2(O)[C@H]3Cc4ccc(O)c5c4[C@@]2(CCN3CC2CC2)[C@H]1O5 [IIi] | 20 | 6.01 |  |  | 
15 | COc1ccc(/C=C2\C[C@@]3(O)[C@H]4Cc5ccc(O)c6c5[C@@]3(CCN4CC3CC3)[C@@H](O6)C2=O)cc1 [IIc] | 22 | 5.52 |  |  | 
16 | Oc1ccc2c3c1O[C@H]1c4[nH]c5c(F)cccc5c4C[C@@]4(O)[C@@H](C2)N(CC2CC2)CC[C@]314 [Compound 11] |  |  | 5.3 | > 330 | 
17 | O=C1/C(=C/c2cccc3ccccc23)C[C@@]2(O)[C@H]3Cc4ccc(O)c5c4[C@@]2(CCN3CC2CC2)[C@H]1O5 [IIl] | 8.5 | 12.7 |  |  | 
18 | O=C1/C(=C/c2cccc(F)c2)C[C@@]2(O)[C@H]3Cc4ccc(O)c5c4[C@@]2(CCN3CC2CC2)[C@H]1O5 [IIh] | 14 | 7.87 |  |  | 
19 | Oc1ccc2c3c1O[C@H]1c4nc5ccccc5cc4C[C@@]4(O)[C@@H](C2)N(CC2CC2)CC[C@]314 [Compound 17] |  |  | 11.3 | 16.3 | delta antagonist potency / selectivity in words [4]: A similar relationship was observed
20 | CN1CC[C@]23c4c5ccc(O)c4O[C@H]2c2[nH]c4ccccc4c2C[C@@]3(O)[C@H]1C5 [Compound 7] |  |  |  |  | Ke, DADLE [5]: e; Ke, M [2, 9]: e; Ke, EK [3, 9]: e; antagonist activity of compound 7 ([6]; at 5 nM): inactive; agonist activity ([6]; in words): partial agonist activity
21 | Cn1c2c(c3ccccc31)C[C@@]1(O)[C@H]3Cc4ccc(O)c5c4[C@@]1(CCN3CC1CC1)[C@H]2O5 [Compound 2] |  |  | 12.5 | 22.2 | 
22 | O=C1/C(=C/c2ccccc2Cl)C[C@@]2(O)[C@H]3Cc4ccc(O)c5c4[C@@]2(CCN3CC2CC2)[C@H]1O5 [IIj] | 0.76 | 130 |  |  | 
23 | Oc1ccc2c3c1O[C@H]1c4[nH]c5cccc(F)c5c4C[C@@]4(O)[C@@H](C2)N(CC2CC2)CC[C@]314 [Compound 10] |  |  | > 125 | > 170 | 
24 | Oc1ccc2c3c1O[C@H]1c4[nH]c5ccc(F)cc5c4C[C@@]4(O)[C@@H](C2)N(CC2CC2)CC[C@]314 [Compound 3] |  |  | 61.7 | 46.2 | 
25 | O=C1CC[C@@]2(O)[C@H]3Cc4ccc(O)c5c4[C@@]2(CCN3CC2CC2)[C@H]1O5 [Naltrexone, naltrexone, reference compound] |  |  |  |  | Kb [7]: 1 nM; block of morphine's effects [8]: block morphine's effects

From patent publication US5631263A, “Use of delta opioid receptor antagonists to treat immunoregulatory disorders” (Minneapolis Medical Research Foundation, priority 1995, dated 1997)
